Counter-ions that a name gives are not always drawn.
Columns and labels:
[1] = test system: IL-1β production in human peripheral blood mononuclear cells (PBMCs); test: PBMC Cellular Assay - IC50 Determinations (LPS-stimulated IL-1β production, ELISA); type: cell-based; conditions: human PBMCs stimulated overnight with 10 ng/mL LPS, mature IL-1β by ELISA
In short: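 Ficoll-isolated human PBMCs (10^6/well, RPMI with 2% human AB serum) were stimulated overnight with LPS 10 ng/mL (E. coli 0111:B4) with or without compound. Mature IL-1β in medium measured by ELISA; viability checked by MTT over a further 4 h.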

[2] = biological target: T1, Ich-2 enzyme (Homo sapiens, UniProt P49662); test: Ich-2 Colorimetric Dose-Response (IC50) Assay; type: biochemical; conditions: enzyme 64 nM, 60 µM Ac-Leu-Glu-Val-Asp-pNA; read-out: ICH2 IC50 (Caspase 4)
T1 sequence (P49662 81-270 limits assumed): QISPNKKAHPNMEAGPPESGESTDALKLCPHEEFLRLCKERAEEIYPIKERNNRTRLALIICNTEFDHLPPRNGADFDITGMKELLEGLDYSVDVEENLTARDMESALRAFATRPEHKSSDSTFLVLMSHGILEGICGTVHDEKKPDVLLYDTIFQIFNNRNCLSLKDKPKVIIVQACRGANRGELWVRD
T1 sequence (P49662 290-377 limits assumed): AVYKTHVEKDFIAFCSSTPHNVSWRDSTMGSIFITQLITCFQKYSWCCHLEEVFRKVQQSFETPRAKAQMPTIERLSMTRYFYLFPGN
Protocol: Diluted inhibitor stocks are prepared by two-fold serial dilution from a primary stock whose concentration is selected (based on screening results or on prior attempts at IC50 evaluation) to achieve approximately 95% inhibition in the most concentrated well. Aliquots of each dilution are transferred to a microtitre plate in triplicate.
ICE enzyme is diluted to approximately 24 nM in HGE buffer (100 mM Hepes pH 7.5, 0.5 mM EDTA, 20% glycerol, 0.1% Bovine Serum Albumin (BSA), and activated by adding dithiothreitol (DTT) to a final concentration of 5 mM. The activated enzyme is then aliquoted into wells containing inhibitor or vehicle, and the plate is preincubated for 60 minutes at ambient temperature. Substrate (Ac-Tyr-Val-Ala-Asp-pNA) is added to each well to a final concentration of 50 µM, and plates are placed in the microtitre plate-reader thermostated to 25°C. Beginning 5 minutes after addition of substrate, absorbance (405 nm) of wells is monitored for 1 hour, and activity is calculated as the mean rate of change in absorbance during this interval.
Inhibition of Ich-2 enzyme is assayed as described above for ICE, except that enzyme is used at 64 nM, and 60 µM of the Ich-2-specific substrate Ac-Leu-Glu-Val-Asp-pNA is used instead of the ICE substrate Ac-Tyr-Val-Ala-Asp-pNA.

[3] = biological target: T2, ICE (Homo sapiens, UniProt P29466); test: ICE Colorimetric Dose-Response (IC50) Assay; type: biochemical; conditions: 60 minutes preincubation, 50 µM Ac-Tyr-Val-Ala-Asp-pNA, 25°C
T2 sequence (P29466 120-297 limits assumed): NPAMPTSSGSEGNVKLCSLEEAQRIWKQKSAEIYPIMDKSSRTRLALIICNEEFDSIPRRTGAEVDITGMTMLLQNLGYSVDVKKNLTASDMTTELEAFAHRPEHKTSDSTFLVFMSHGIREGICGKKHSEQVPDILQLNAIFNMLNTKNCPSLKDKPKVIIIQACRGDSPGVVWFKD
T2 sequence (P29466 317-404 limits assumed): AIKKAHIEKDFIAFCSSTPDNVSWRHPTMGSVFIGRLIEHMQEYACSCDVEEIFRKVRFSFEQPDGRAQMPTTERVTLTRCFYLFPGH
In short: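 Human ICE (~24 nM in HGE buffer, pH 7.5, activated with 5 mM DTT) preincubated 60 min at ambient temperature with two-fold serial inhibitor dilutions, in triplicate. Ac-Tyr-Val-Ala-Asp-pNA added at 50 µM; A405 followed for 1 h at 25°C starting 5 min after substrate, activity taken as mean rate.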

[4] = biological target: T2, ICE; test: ICE inhibition, Ki determination (fluorogenic substrate Ac-Tyr-Val-Ala-Asp-AMC); type: biochemical; conditions: 15 µM Ac-Tyr-Val-Ala-Asp-AMC, 0.5 nM enzyme, 30°C, reversible competitive model

| IC50 [2] | IC50 [3] | Ki [4] | SMILES | IC50 [1] |
| --- | --- | --- | --- | --- |
| 4430 nM | 14.5 nM | 2.9 nM | Cc1cc2ncn(CCNC(=O)CC(C(=O)NC(C=O)CC(=O)O)C(C)C)c2cc1C (stereo not shown) [Example 23, 3-(2-{[2-(5,6-Dimethyl-benzoimidazol-1-yl)-ethylcarbamoyl]-methyl}-3-methyl-butyrylamino)-4-oxo-butyric acid, trifluoroacetate salt] | 3600 nM |
| 174000 nM | 750 nM | 37 nM | CCOC1OC(=O)CC1NC(=O)C(CC(=O)NCCc1c[nH]c2c(C)cccc12)C(C)C (stereo not shown) [Example 45, N^1-(2-Ethoxy-5-oxo-tetrahydro-furan-3-yl)-N^4-[2-(7-methyl-1H-indol-3-yl)-ethyl]-2-isopropyl-succinamide] | 2600 nM |
| 367000 nM | 438 nM | 28.4 nM | CCOC1OC(=O)CC1NC(=O)C(CC(=O)NCCn1c(C)nc2ccccc21)C(C)C (stereo not shown) [Example 46, N^1-(2-ethoxy-5-oxotetrahydro-furan-3-yl)-2-isopropyl-N^4-[2-(2-methyl-benzoimidazol-1-yl)-ethyl]-succinamide] | 6500 nM |
| 101000 nM | 599 nM | 630 nM | CCOC1OC(=O)CC1NC(=O)C(CC(=O)NCCc1c[nH]c2ccccc12)C(C)C (stereo not shown) [Example 36, N^1-(2-Ethoxy-5-oxo-tetrahydro-furan-3-yl)-N^4-[2-(1H-indol-3-yl)-ethyl]-2-isopropyl-succinamide] | 1300 nM |
| 10600 nM | 336 nM | 31.8 nM | CC(C)C(CC(=O)NCCn1nnc2ccccc21)C(=O)NC(C=O)CC(=O)O (stereo not shown) [Example 58, 3-{2-[(2-Benzotriazol-1-yl-ethylcarbamoyl)-methyl]-3-methyl-butyrylamino}-4-oxo-butyric acid] | 7750 nM |
| 62000 nM | 11 nM | 1.5 nM | CC(C)C(CC(=O)NCCc1c[nH]c2cc(F)ccc12)C(=O)NC(CC(=O)O)C(=O)CNS(=O)(=O)CC12CCC(CC1=O)C2(C)C (stereo not shown) [Example 20, 5-(7,7-Dimethyl-2-oxo-bicyclo[2.2.1]hept-1-ylmethanesulfonylamino)-3-(2-{[2-(6-fluoro-1H-indol-3-yl)-ethylcarbamoyl]-methyl}-3-methyl-butyrylamino)-4-oxo-pentanoic acid] | 2450 nM |
| 25700 nM | 3270 nM | 539 nM | CC(C)C(CC(=O)NCCc1ccccc1)C(=O)NC(CC(=O)O)C(=O)CSCCCc1ccccc1 (stereo not shown) [Example 10, 3-[3-Methyl-2-(phenethylcarbamoyl-methyl)-butyrylamino]-4-oxo-5-(3-phenyl-propylsulfanyl)-pentanoic acid] | 21500 nM |
| 2380 nM | 8.5 nM | 0.9 nM | Cc1cccc2c(CCNC(=O)CC(C(=O)NC(CC(=O)O)C(=O)CNS(=O)(=O)CC34CCC(CC3=O)C4(C)C)C(C)C)c[nH]c12 (stereo not shown) [Example 19, 5-(7,7-Dimethyl-2-oxo-bicyclo[2.2.1]hept-1-ylmethanesulfonylamino)-3-(3-methyl-2-{(2-(7-methyl-1H-indol-3-yl)-ethylcarbamoyl]-methyl}-butyrylamino)-4-oxo-pentanoic acid] | 400 nM |
| 128000 nM | 581 nM | 29.7 nM | CCOC1OC(=O)CC1NC(=O)C(CC(=O)NCCc1cn(C)c2ccccc12)C(C)C (stereo not shown) [Example 37, N^1-(2-Ethoxy-5-oxo-tetrahydro-furan-3-yl)-2-isopropyl-N^4-[2-(1-methyl-1H-indol-3-yl)-ethyl]-succinamide] | 2000 nM |
| 32500 nM | 73.7 nM | 20 nM | CC(C)C(CC(=O)NCCn1cnc2ccccc21)C(=O)NC(C=O)CC(=O)O (stereo not shown) [Example 53, 3-{2-[(2-Benzoimidazol-1-yl-ethylcarbamoyl)-methyl]-3-methyl-butyrylamino}-4-oxo-butyric acid] | 8300 nM |
| 250 nM | 52 nM | 6.7 nM | CC(C)C(CC(=O)NCCCc1ccccc1)C(=O)NC(CC(=O)O)C(=O)COc1ccc2oc(=O)ccc2c1 (stereo not shown) [Example 13, 3-{3-Methyl-2-[(3-phenyl-propylcarbamoyl)-methyl]-butyrylamino}-4-oxo-5-(2-oxo-2H-chromen-6-yloxy)-pentanoic acid] | 2350 nM |
| 9720 nM | 16800 nM | 2180 nM | CC(C)C(CC(N)=O)C(=O)NC(CC(=O)O)C(=O)CNS(=O)(=O)CCc1ccccc1 (stereo not shown) [Example 4, 3-(2-Carbamoylmethyl-3-methyl-butyrylamino)-4-oxo-5-(2-phenyl-ethanesulfonyl-amino)-pentanoic acid] | 65000 nM |

| SMILES | IC50 [2] | IC50 [3] | Ki [4] | IC50 [1] |
| --- | --- | --- | --- | --- |
| CCOC1OC(=O)CC1NC(=O)[C@@H](CC(=O)NCCn1cnc2cc(Cl)c(Cl)cc21)C(C)C (stereo partly shown) [Example 38, N^4-[2-(5,6-Dichloro-benzoimidazol-1-yl)-ethyl]-N^1-(2-ethoxy-5-oxo-tetrahydro-furan-3-yl)-2-isopropyl-succinamide] | 18700 nM | 377 nM | 16.4 nM | 3400 nM |
